According to paper PMC8689007, “In Silico Prediction and Bioactivity Evaluation of Chemical Ingredients Against Influenza A Virus From Isatis tinctoria L” (Frontiers in Pharmacology, 2021):
In brackets after ≈: the same amount, converted by molar mass. Several values for one entry are separate records, joined by “and”; a condition that tells them apart may be missing. Equal values may be shown once. Read-outs that look alike come from different tables or passages of the source.

What was measured:
[1] = system: A/Minfang/151/2000 (H3N2); assay: microbe, parasite or virus in culture; details: Influenza A virus, H3N2, MDCK
A/PR/8/34 (H1N1) [2] = system: A/PR/8/34 (H1N1)
[3] = system: A/Minfang/151/2000 (H3N2)
A/PR/8/34 (H1N1) [4] = assay: microbe, parasite or virus in culture; details: Influenza A virus, MDCK
[5] = system: Japanese encephalitis virus (JEV); details: in vitro; ref Chang et al., 2012; cited from earlier work
[6] = system: Japanese encephalitis virus (JEV); details: mouse model; ref Chang et al., 2012; cited from earlier work
H1N1 = details: restraint-stressed mouse model; ref Chong et al., 2017; cited from earlier work
HCoV-NL63 = system: HCoV-NL63; set-up: method as in Tsai et al., 2020; details: HCoV-NL63-infected cells; ref Tsai et al., 2020; read-out: IC50 (CPE and virus yield); cited from earlier work

COc1ccc(-c2cc(=O)c3c(O)cc(O)cc3o2)cc1 [Acacetin]
IC50 [1]: 7.62 ± 1.45 µg/mL (≈ 26.8 µM)

COc1c(O)cc2oc(-c3ccc(O)cc3)cc(=O)c2c1O [Dinatin]
IC50 [1]: > 100 µg/mL

COc1ccc(-c2cc(=O)c3c(O)c(OC)c(OC)cc3o2)cc1O [Eupatorin]
IC50 (A/PR/8/34 (H1N1) [2]): 63.99 ± 3.38 µg/mL and 55.77 ± 3.86 µg/mL and 88.92 ± 7.34 µg/mL
IC50 [3]: 69.31 ± 1.97 µg/mL and 73.85 ± 1.34 µg/mL and 92.58 ± 0.33 µg/mL
IC50 (A/PR/8/34 (H1N1) [4]): 59.5 ± 3.58 µg/mL (≈ 173 µM)

O=C1Nc2ccccc2/C1=C1/Nc2ccccc2C1=O [Indirubin]
IC50 (A/PR/8/34 (H1N1) [2]): 63.45 ± 5.27 µg/mL and 86.3 ± 5.68 µg/mL and 69.49 ± 1.36 µg/mL
inhibitory activity on JEV replication [5]: concentration-dependent inhibitory activity
protection against lethal JEV challenge [6]: good protective effects
H1N1 susceptibility and lung damage (H1N1): decrease the H1N1 susceptibility and alleviate lung damage
IC50 (A/PR/8/34 (H1N1) [4]): 58.5 ± 10.2 µg/mL (≈ 223 µM)
IC50 [1]: 77.2 ± 6 µg/mL (≈ 294 µM)

COc1ccc(-c2cc(=O)c3c(O)cc(O[C@@H]4O[C@H](CO[C@@H]5O[C@@H](C)[C@H](O)[C@@H](O)[C@H]5O)[C@@H](O)[C@H](O)[C@H]4O)cc3o2)cc1 [Linarin]
IC50 (A/PR/8/34 (H1N1) [2]): 54.27 ± 3.01 µg/mL and 72.21 ± 2.42 µg/mL and 56.26 ± 0.78 µg/mL
IC50 [3]: 81.85 ± 2.76 µg/mL and 86.35 ± 9.88 µg/mL and 77.71 ± 3.08 µg/mL
IC50 (A/PR/8/34 (H1N1) [4]): 63.2 ± 3.32 µg/mL (≈ 107 µM)

O=C1c2ccccc2-n2c1nc1ccccc1c2=O [Tryptanthrin]
IC50 (HCoV-NL63): 1.52 µM
